Assay results: US3957788A (priority 1974, dated 1976)
Like-named read-outs stand apart in the source and are kept apart here.

How the values were obtained:
male mice of ddN strain = assay: animal or person; format: in vivo; conditions: Mus musculus, read-out: D'Amour-Smith method, analgesic ED50
[1] = test system: female mice of ddN strain; conditions: mouse, in vivo
[2] = test system: male rats of Wistar strain; assay: animal or person; format: in vivo; conditions: Rattus norvegicus, po, read-out: Haffner method, analgesic ED50

SMILES: Cc1c(N(C)C)c(=O)n(-c2ccccc2)n1C [compound 5, Aminopyrine]
- ED50 (male mice of ddN strain; po): ≥ 640 mg/kg
- ED50 (male mice of ddN strain; sc): 233 mg/kg
- Phenylquinone method (analgesic activity) [1]: 53.3
- ED50 [2]: > 2560 mg/kg
